Columns and labels:
Experiment in all cases: relative viability (nuclei count vs DMSO), 5 days (fraction); higher = more cells survive
Crizotinib + AZD7762 = compound: C[C@@H](Oc1cc(-c2cnn(C3CCNCC3)c2)cnc1N)c1c(Cl)ccc(F)c1Cl [Crizotinib] + NC(=O)Nc1cc(-c2cccc(F)c2)sc1C(=O)N[C@H]1CCCNC1 [AZD7762] (partner 0.2 µM)
Outline: (§1)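 Lung cancer cell lines were seeded in 1536-well plates and dosed by pin tool the next day, with either a single drug or a fixed anchor-drug dose combined with five library-drug doses (not always all listed) spaced in √10 steps. Five days later, one step fixed the cells and stained their nuclei (final 0.05% Triton X-100, 1% formaldehyde, 1 ug/ml Hoechst), and nuclei were counted on 4× images. Relative viability is the nuclei count in treated wells divided by the count in vehicle wells, and each value is the median of duplicate plates.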

Carfilzomib + Navitoclax = compound: CC(C)C[C@H](NC(=O)[C@H](CCc1ccccc1)NC(=O)CN1CCOCC1)C(=O)N[C@@H](Cc1ccccc1)C(=O)N[C@@H](CC(C)C)C(=O)[C@@]1(C)CO1 [Carfilzomib] + CC1(C)CCC(c2ccc(Cl)cc2)=C(CN2CCN(c3ccc(C(=O)NS(=O)(=O)c4ccc(N[C@H](CCN5CCOCC5)CSc5ccccc5)c(S(=O)(=O)C(F)(F)F)c4)cc3)CC2)C1 [Navitoclax] (partner 0.5 µM)
Outline: as §1

Crizotinib + Bortezomib = compound: C[C@@H](Oc1cc(-c2cnn(C3CCNCC3)c2)cnc1N)c1c(Cl)ccc(F)c1Cl [Crizotinib] + CC(C)C[C@H](NC(=O)[C@H](Cc1ccccc1)NC(=O)c1cnccn1)B(O)O [Bortezomib] (partner 0.002 µM)
Outline: as §1

Olaparib + Lapatinib = compound: O=C(c1cc(Cc2n[nH]c(=O)c3ccccc23)ccc1F)N1CCN(C(=O)C2CC2)CC1 [Olaparib] + CS(=O)(=O)CCNCc1ccc(-c2ccc3ncnc(Nc4ccc(OCc5cccc(F)c5)c(Cl)c4)c3c2)o1 [Lapatinib] (partner 2 µM)
Outline: as §1

Row | Cell Line | relative viability (Crizotinib + AZD7762; first compound 0.01 µM) | relative viability (Crizotinib + AZD7762; first compound 0.03162 µM) | relative viability (Crizotinib + AZD7762; first compound 0.1 µM) | relative viability (Crizotinib + AZD7762; first compound 0.3162 µM) | relative viability (Crizotinib + AZD7762; first compound 1 µM) | relative viability (Carfilzomib + Navitoclax; first compound 0.001 µM) | relative viability (Carfilzomib + Navitoclax; first compound 0.003162 µM) | relative viability (Carfilzomib + Navitoclax; first compound 0.01 µM) | relative viability (Carfilzomib + Navitoclax; first compound 0.03162 µM) | relative viability (Carfilzomib + Navitoclax; first compound 0.1 µM) | relative viability (Crizotinib + Bortezomib; first compound 0.01 µM) | relative viability (Crizotinib + Bortezomib; first compound 0.03162 µM) | relative viability (Crizotinib + Bortezomib; first compound 0.1 µM) | relative viability (Crizotinib + Bortezomib; first compound 0.3162 µM) | relative viability (Crizotinib + Bortezomib; first compound 1 µM) | relative viability (Olaparib + Lapatinib; first compound 0.08 µM) | relative viability (Olaparib + Lapatinib; first compound 0.253 µM) | relative viability (Olaparib + Lapatinib; first compound 2.53 µM) | relative viability (Olaparib + Lapatinib; first compound 8 µM)
1 | HCC-827 | 0.236 | 0.201 | 0.184 | 0.174 | 0.217 | 0.983 | 1.05 | 1.03 | 0.907 | 0.369 | 0.887 | 1.06 | 1.14 | 0.999 | 0.931 | 0.239 | 0.202 | 0.194 | 0.176
2 | HOP-62 | 0.447 | 0.508 | 0.622 | 0.565 | 0.633 | 1.1 | 1.11 | 0.887 | 0.167 | 0.107 | 0.822 | 0.788 | 1.03 | 0.523 | 0.584 | 1.22 | 1.08 | 0.741 | 0.538
3 | LC-2-ad | 0.779 | 0.854 | 0.846 | – | 0.853 | 0.568 | 0.452 | 0.407 | 0.227 | 0.135 | 1.06 | 1.07 | 1 | – | 1.04 | 1.08 | 0.89 | 0.905 | 0.597
4 | LCLC-97TM1 | 0.193 | 0.138 | 0.252 | 0.104 | 0.339 | 0.285 | 0.47 | 0.478 | 0.171 | 0.128 | 0.641 | 0.601 | 1.09 | 0.435 | 0.519 | 1.21 | 0.947 | 0.565 | 0.438
5 | LOU-NH91 | 0.778 | 0.82 | 0.796 | 0.719 | 0.716 | 0.703 | 0.832 | 0.42 | 0.19 | 0.204 | 0.457 | 0.465 | 0.451 | 0.484 | 0.458 | 0.83 | 0.77 | 0.733 | 0.735
6 | LU99A | 0.276 | 0.362 | 0.34 | 0.32 | 0.407 | 0.738 | 0.898 | 0.793 | 0.581 | 0.183 | 1.1 | 1.14 | 1.14 | 1.07 | 1.04 | 1.01 | 0.839 | 0.643 | 0.49
7 | LXF-289 | 1.05 | 1.11 | 1.16 | 1 | 1.19 | 0.915 | 0.974 | 0.935 | 0.0853 | 0.0461 | 0.917 | 0.972 | 1.01 | 0.85 | 0.967 | 0.929 | 0.871 | 0.97 | 0.973
8 | NCI-H23 | 0.281 | 0.323 | 0.297 | – | 0.261 | 0.797 | 0.799 | 0.987 | 0.227 | 0.152 | 1.02 | 1.09 | 1.03 | – | 0.979 | 1.32 | 0.791 | 0.679 | 0.485
9 | NCI-H322M | – | 0.575 | 0.609 | 0.547 | 0.584 | 1.36 | 1.29 | 1.01 | 1.22 | 0.559 | 1.19 | 1.23 | 1.24 | 1.29 | 1.38 | 0.576 | 0.597 | 0.599 | 0.491
10 | NCI-H460 | 0.592 | 0.64 | 0.665 | – | 0.607 | 1.08 | 1.21 | 1.17 | 0.357 | 0.0107 | 1.08 | 1.07 | 1.01 | 1.2 | 1.1 | 1.28 | 0.874 | 0.679 | 0.172
11 | NCI-H596 | 1.05 | 1.01 | 1.03 | – | 1.16 | 0.906 | 1.04 | 1.14 | 0.353 | 0.153 | 0.894 | 1.18 | 1.1 | 1.45 | 0.947 | 1.09 | 0.988 | 1.06 | 0.73
12 | NCI-H647 | 0.444 | 0.626 | 0.403 | 0.394 | 0.595 | – | 1.33 | 0.841 | 0.087 | 0.0294 | 0.638 | 1.01 | 0.827 | 0.94 | 0.943 | 1.43 | 0.984 | 1.13 | 0.59
13 | NCI-H727 | 0.566 | 0.568 | 0.567 | 0.433 | 0.661 | 0.429 | 0.637 | 0.601 | 0.165 | 0.137 | 0.569 | 0.806 | 1.01 | 0.962 | 0.988 | 0.945 | 0.778 | 0.651 | 0.465
14 | NCI-H838 | 0.975 | 0.919 | 0.969 | 0.9 | 0.974 | 1.24 | 1.26 | 1.16 | 0.686 | 0.153 | 0.806 | 0.695 | 0.968 | 0.863 | – | 0.94 | 0.857 | 0.887 | 1.09
15 | NCI-H1355 | 0.678 | 0.707 | 0.867 | 0.675 | 0.769 | 0.792 | 1.02 | 0.979 | 0.486 | 0.133 | 1.23 | 1.21 | 1.22 | 1.1 | 1.24 | 1.13 | 0.863 | 1 | 0.944
16 | NCI-H1437 | 1.03 | 1.13 | 1.09 | 1.13 | 1.09 | 1.08 | 1.12 | 1.12 | 0.759 | 0.12 | 0.48 | 0.553 | 0.558 | 0.434 | 0.494 | 0.801 | 0.652 | 0.717 | 0.599
